Source: patent US8933079B2, “Pyridone and pyridazinone derivatives as anti-obesity agents” (Boehringer Ingelheim International GmbH, priority 2012, dated 2015)
pIC50: −log10 of the molar value.

Experiments:
[1] = molecular target: hMCH-1R (Homo sapiens (Human), UniProt Q99705); experiment: MCH-1 receptor binding test (125I-MCH binding to hMCH-1R transfected cell membranes); details: competition with 100 pM 125I-MCH, membranes of CHO/Galpha16 cells stably transfected with hMCH-1R
[2] = test system: human hepatocytes; experiment: Metabolic degradation in human hepatocytes (intrinsic clearance); type: in vitro ADME; details: human hepatocyte suspension, 1 μM test compound, 5% human serum, 6 h
Experimental: Determination of Metabolic Degradation in Human Hepatocytes for Compounds of the Invention
The metabolic degradation of the test compound is determined in a hepatocyte suspension. Hepatocytes (typically cryopreserved) are incubated in an appropriate buffer system (e.g. Dulbecco's modified eagle medium plus 3.5 μg glucagon/500 mL, 2.5 mg insulin/500 mL and 3.75 mg/500 mL hydrocortison) containing 5% human serum.
Following a (typically) 30 min preincubation in an incubator (37° C., 10% CO2), 5 μl of test compound solution (80 μM; from 2 mM in DMSO stock solution diluted 1:25 with medium) are added into 395 μl hepatocyte suspension (cell density in the range 0.25-5 Mio cells/mL, typically 1 Mio cells/mL; final concentration of test compound 1 μM, final DMSO concentration 0.05%). The cells are incubated for six hours (incubator, orbital shaker) and samples (25 μl) are taken at 0, 0.5, 1, 2, 4 and 6 hours. Samples are transferred into acetonitrile and pelleted by centrifugation (5 min). The supernatant is transferred to a new 96-deepwell plate, evaporated under nitrogen and resuspended.
Decline of parent compound is analyzed by HPLC-MS/MS.
CLint is calculated as follows CL_[…]=Dose/AUC=(CO/CD)/(AUD+clast/k)×1000/60. C0: initial concentration in the incubation [μM], CD: cell density of vital cells [10e6 cells/mL], AUD: area under the data [μM×h], clast: concentration of last data point [μM], k: slope of the regression line for parent decline [h−1].

Sequence of hMCH-1R (Q99705 whole entry): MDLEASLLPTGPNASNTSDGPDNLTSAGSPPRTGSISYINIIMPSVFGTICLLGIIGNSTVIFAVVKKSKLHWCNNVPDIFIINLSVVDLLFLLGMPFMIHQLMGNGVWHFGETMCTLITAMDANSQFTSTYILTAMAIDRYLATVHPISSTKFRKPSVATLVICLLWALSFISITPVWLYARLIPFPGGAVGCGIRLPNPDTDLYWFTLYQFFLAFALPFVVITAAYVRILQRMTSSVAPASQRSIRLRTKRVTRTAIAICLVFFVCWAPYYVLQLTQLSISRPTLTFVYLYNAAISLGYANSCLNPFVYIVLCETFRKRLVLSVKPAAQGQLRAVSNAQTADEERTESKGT

SMILES | pIC50 [1] | CLint [2]
Cc1cc(CN(C)C)ccc1C(=O)Cn1ccc(OCc2ccc(Cl)cn2)cc1=O [Example 3.9, 4-(5-Chloro-pyridin-2-ylmethoxy)-1-[2-(4-dimethylaminomethyl-2-methyl-phenyl)-2-oxo-ethyl]-1H-pyridin-2-one] | 7.49 | 13.8 μL/min/10e6 cells
Cc1cc(CN(C)C)ccc1C(=O)Cn1ccc(OCc2ccc(Br)cn2)cc1=O [Example 4.1, 4-(5-Bromo-pyridin-2-ylmethoxy)-1-[2-(4-dimethylaminomethyl-2-methyl-phenyl)-2-oxo-ethyl]-1H-pyridin-2-one] | 7.77 | 20.7 μL/min/10e6 cells
Cc1cc(CN(C)C)ccc1C(=O)Cn1ncc(OCc2ccccc2)cc1=O [Example 5.2, 5-Benzyloxy-2-[2-(4-dimethylaminomethyl-2-methyl-phenyl)-2-oxo-ethyl]-2H-pyridazin-3-one] | 8.05 | 4.8 μL/min/10e6 cells
Cc1cc(CN(C)C)ccc1C(=O)Cn1ncc(OCc2ccc(F)cn2)cc1=O [Example 6.5] | 7.30 | 1.7 μL/min/10e6 cells
Cc1cc(CN(C)C)ccc1C(=O)Cn1ncc(OCc2ccc(Br)cn2)cc1=O [Example 8.3, 5-(5-Bromo-pyridin-2-ylmethoxy)-2-[2-(4-dimethylaminomethyl-2-methyl-phenyl)-2-oxo-ethyl]-2H-pyridazin-3-one] | 7.80 | 11.5 μL/min/10e6 cells
COc1ccc(COc2cnn(CC(=O)c3ccc(CN(C)C)cc3C)c(=O)c2)nc1 [Example 9.1, 2-[2-(4-Dimethylaminomethyl-2-methyl-phenyl)-2-oxo-ethyl]-5-(5-methoxy-pyridin-2-ylmethoxy)-2H-pyridazin-3-one] | 7.55 | 3.3 μL/min/10e6 cells
